This note sets out measurements from patent publication US11773078B2, “Furin inhibitors” (Glaxosmithkline Intellectual Property Development Limited, priority 2018, dated 2023).

Structures can show the parent of a compound that is named as a salt.

In test [1] the target is T1, furin (endogenous protease) in U20S cells (Homo sapiens, UniProt P09958).
T1 construct: the endogenous protease cleaves GFP; endogenous in cells; host or cells: U2OS cells transduced with a BacMam reporter
The test can be described thus: Furin cell-based assay (image-based, Golgi-targeted GFP with BMP10 furin/PCSK cleavage site).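 Also: Read-out is mean GFP fluorescence of Golgi puncta per cell by high-content imaging, retained when furin inhibited, over an eleven-point 0.00017–10 µM series, four-parameter fit.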 Conditions: 24-hour incubation, read-out: furin golgi cell pXC50 (converted).
Experimental: This assay uses an image-based platform to evaluate the intracellular activity of compounds of the invention. Reactions were performed in black 384-well, tissue culture-treated, clear bottom plates (Greiner). Compounds under analysis were dissolved in DMSO (1.0 mM) and serially diluted 1 to 3 with DMSO through eleven dilutions. This creates a final compound concentration range from 0.00017 to 10 μM, and 0.1 μL of each concentration was transferred to the corresponding well of the assay plate. Assays were initiated by the addition of U20S cells simultaneously transduced with a BacMam-delivered construct containing a Golgi-targeting sequence followed by a 12-amino acid furin/PCSK cleavage site from Bone Morphogenic Protein 10 (BMP10) and then GFP at the C terminus. […] Briefly, frozen cells are thawed in assay media (Dulbecco's Modified Eagles Medium Nutritional Mixture F-12 (Ham) without phenol red containing 5% FBS) and diluted to deliver 6000 cells/well (50 μL) to the plate using a Multidrop Combi (Thermo).
After a 24-hour incubation period at 37° C., the cells are stained with Cell Mask Deep Red, fixed in paraformaldehyde and the nuclei stained using Ho33342. The Golgi-targeted GFP forms bright punctate clusters within the cell. In the absence of a furin inhibitor, the endogenous protease cleaves GFP from its N-acetylgalactosaminyltransferase-2 Golgi tether, releasing GFP into the Golgi lumen where fluorescence is diluted below the threshold of assay sensitivity. […] Cellular GFP intensity is determined by image-based acquisition (Incell 2200, Perkin Elmer) at 40× magnification with 4 fields measured per well. Multi-scale tophat segmentation is used to identify the GFP-tagged puncta and to quantitate the average fluorescence of all puncta on a per cell basis. Cellular toxicity is determined in parallel.

The target of test [2] is T2, Furin (108-574-Tev-Flag-His) enzyme (Homo sapiens, UniProt P09958).
T2 construct: Furin (108-574-Tev-Flag-His) enzyme was expressed and purified from CHO cells; TEV cleavage site (C); FLAG (C); His (C); made in house; host or cells: CHO cells
The test is described as follows: Furin enzyme assay. In kind it is biochemical. Conditions: for IC50: read-out: furin enzyme pIC50 (converted). On the procedure: Reactions were performed in black 384-well polystyrene low volume plates (Greiner). Furin (108-574-Tev-Flag-His) enzyme was expressed and purified from CHO cells. Compounds of the invention were dissolved in DMSO (1.0 mM) and serially diluted 1 to 3 with DMSO through eleven dilutions to provide a final compound concentration range from 0.00017 to 10 μM. 0.05 μL of each concentration was transferred to the corresponding well of an assay plate, and then 5 μL of 40 pM furin enzyme in assay buffer (100 mM HEPES pH7.5, 1 mM CaCl2 and 0.005% Triton X-100) was added using a Multidrop Combi (Thermo) to the compound plates, and mixed by inversion. […] The plates were centrifuged at 500×g for 1 minute and incubated at room temperature for two hours. Enzyme inhibition is then quantified using an Envision instrument (PerkinElmer).
Data were analyzed using AbaseXE 7.3, utilizing a four-parameter curve fit equation. The following values were used to define limits and/or constraints for each of the four parameters: • Minimum—limit −10 to 10 • Maximum—90 to 110 • Slope—limit 0.5 to 2.0 • pXC50 confidence interval—10
Raw counts obtained from the respective plate reader (Perkin Elmer) were captured for data analysis. Curves were generated using the equation: Y=A+[(B−A)/(1+(10^C/x)^D)] • where: A=minimum response • B=maximum response • C=log 10*XC50 • D=slope factor • x=log 10 compound concentration [M]
The results were recorded as pXC50 values (−C in the above equation)

T2 sequence (P09958 108-574): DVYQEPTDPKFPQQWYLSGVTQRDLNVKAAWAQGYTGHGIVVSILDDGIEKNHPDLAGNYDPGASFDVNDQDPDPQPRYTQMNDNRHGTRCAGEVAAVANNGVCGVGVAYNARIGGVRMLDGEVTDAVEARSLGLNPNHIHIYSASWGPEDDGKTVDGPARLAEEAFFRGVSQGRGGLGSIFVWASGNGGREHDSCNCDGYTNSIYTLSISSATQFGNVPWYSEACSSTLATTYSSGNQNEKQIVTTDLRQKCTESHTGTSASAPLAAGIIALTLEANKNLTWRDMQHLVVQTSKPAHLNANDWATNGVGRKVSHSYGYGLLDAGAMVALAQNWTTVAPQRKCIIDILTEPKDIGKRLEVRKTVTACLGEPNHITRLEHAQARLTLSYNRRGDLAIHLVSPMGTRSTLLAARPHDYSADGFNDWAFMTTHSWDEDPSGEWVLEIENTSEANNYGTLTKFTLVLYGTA
T1 sequence (P09958 108-794): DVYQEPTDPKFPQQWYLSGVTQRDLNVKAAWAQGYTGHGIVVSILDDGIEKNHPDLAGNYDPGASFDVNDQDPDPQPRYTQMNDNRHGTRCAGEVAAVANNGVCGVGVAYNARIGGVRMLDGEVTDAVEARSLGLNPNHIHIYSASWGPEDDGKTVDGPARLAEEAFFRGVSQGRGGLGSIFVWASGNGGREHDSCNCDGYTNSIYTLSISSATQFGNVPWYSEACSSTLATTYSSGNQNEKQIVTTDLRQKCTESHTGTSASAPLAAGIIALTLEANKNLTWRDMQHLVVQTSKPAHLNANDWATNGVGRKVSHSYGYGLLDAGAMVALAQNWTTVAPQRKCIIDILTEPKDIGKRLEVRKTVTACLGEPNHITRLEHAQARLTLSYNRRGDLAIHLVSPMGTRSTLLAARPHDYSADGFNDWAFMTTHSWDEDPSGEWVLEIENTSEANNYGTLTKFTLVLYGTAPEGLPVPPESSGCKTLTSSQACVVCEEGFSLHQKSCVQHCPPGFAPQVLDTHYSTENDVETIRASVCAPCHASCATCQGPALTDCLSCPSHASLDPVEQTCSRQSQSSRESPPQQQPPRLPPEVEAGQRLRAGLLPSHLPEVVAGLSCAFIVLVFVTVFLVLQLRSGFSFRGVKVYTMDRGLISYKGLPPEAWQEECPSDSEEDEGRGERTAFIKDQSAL

As to `CNCc1cc(Oc2ccc(NCCCN)nc2)cc(-c2cc(Cl)cc(Cl)c2)c1` [Example 101, N^1-(5-((3′,5′-Dichloro-5-((methylamino)methyl)-[1,1′-biphenyl]-3-yl)oxy)pyridin-2-yl)propane-1,3-diamine], the EC50 in test [1] was 3160 nM. Moreover, the “furin enzyme pIC50” value in test [2] is on record as 8.6.
In the same order, the values of `CN1CCN(c2ccc(Oc3cc(CN4CCC(CCO)CC4)cc(-c4cc(Cl)cc(Cl)c4)n3)nn2)CC1` [Example 360, 2-(1-((2-(3,5-dichlorophenyl)-6-((6-(4-methylpiperazin-1-yl)pyridazin-3-yl)oxy)pyridin-4-yl)methyl)piperidin-4-yl)ethanol] are 12.6 nM and 9.
With `CNC(=O)OCC1CCN(Cc2cc(Oc3cnc(N4CCN(C5CC(C(=O)O)C5)CC4)nc3)nc(-c3cc(Cl)cc(Cl)c3)c2)CC1` (stereo not drawn) [Example 211, 3-(4-(5-((6-(3,5-dichlorophenyl)-4-((4-(((methylcarbamoyl)oxy)methyl)piperidin-1-yl)methyl)pyridin-2-yl)oxy)pyrimidin-2-yl)piperazin-1-yl)cyclobutanecarboxylic acid], the EC50 in test [1] is 25.1 nM. The “furin enzyme pIC50” value in test [2] worked out at 10.1.
The like results for `CC(=O)NCC1CCN(Cc2cc(Oc3ccc(N4CCN(CC(O)CCO)CC4)nc3)nc(-c3cc(Cl)cc(Cl)c3)c2)CC1` (stereo not drawn) [Example 29, N-((1-((2-(3,5-Dichlorophenyl)-6-((6-(4-(2,4-dihydroxybutyl)piperazin-1-yl)pyridin-3-yl)oxy)pyridin-4-yl)methyl)piperidin-4-yl)methyl)acetamide] were, in that order, under 0.794 nM and 9.
In the case of `C[C@@H](O)CN1CCN(c2ncc(Oc3cc(CN4CCC(OCC(=O)O)CC4)cc(-c4cc(Cl)cc(Cl)c4)n3)cn2)CC1` [Example 317, (R)-2-((1-((2-(3,5-dichlorophenyl)-6-((2-(4-(2-hydroxypropyl)piperazin-1-yl)pyrimidin-5-yl)oxy)pyridin-4-yl)methyl)piperidin-4-yl)oxy)acetic acid], the EC50 in test [1] was 15.8 nM. Besides, the “furin enzyme pIC50” value in test [2] is reported as 9.2.
Regarding `CN1C2CCC1CN(c1ncc(Oc3nc(-c4cc(Cl)cc(Cl)c4)cc(CN4CCC(CC(=O)O)CC4)c3F)cn1)C2` [Example 378, 2-(1-((6-(3,5-dichlorophenyl)-3-fluoro-2-((2-(8-methyl-3,8-diazabicyclo[3.2.1]octan-3-yl)pyrimidin-5-yl)oxy)pyridin-4-yl)methyl)piperidin-4-yl)acetic acid], the EC50 in test [1] is 6.31 nM. For the same compound, in test [2], the IC50 was 2 nM.
Turning to `CC(=O)NCC1CCN(Cc2cc(Oc3cnc(N4CCN(CC(O)CF)CC4)nc3)nc(-c3cc(Cl)cc(Cl)c3)c2)CC1` (stereo not drawn) [Example 304, N-((1-((2-(3,5-dichlorophenyl)-6-((2-(4-(3-fluoro-2-hydroxypropyl)piperazin-1-yl)pyrimidin-5-yl)oxy)pyridin-4-yl)methyl)piperidin-4-yl)methyl)acetamide], in test [1], the EC50 is 2.51 nM. Also, in test [2], the “furin enzyme pIC50” value is recorded as 8.8.
In the same order, the values of `CN1CCN(c2ccc(Oc3nc(-c4cc(Cl)cc(Cl)c4)cc(CN4CCC(CC(=O)O)CC4)c3F)nn2)CC1` [Example 384, 2-(1-((6-(3,5-dichlorophenyl)-3-fluoro-2-((6-(4-methylpiperazin-1-yl)pyridazin-3-yl)oxy)pyridin-4-yl)methyl)piperidin-4-yl)acetic acid] are 25.1 nM and 8.4.
Regarding `CNC(=O)NCC1CCN(Cc2cc(Oc3ccc(N4CCN(CCOC)CC4)nc3)nc(-c3cc(Cl)cc(Cl)c3)c2)CC1` [Example 254, 1-((1-((2-(3,5-dichlorophenyl)-6-((6-(4-(2-methoxyethyl)piperazin-1-yl)pyridin-3-yl)oxy)pyridin-4-yl)methyl)piperidin-4-yl)methyl)-3-methylurea], the EC50 in test [1] is 3.16 nM. The “furin enzyme pIC50” value in test [2] worked out at 8.7.
The like results for `CN1CCN(c2ccc(Oc3cc(CN4CCC5(CC4)CNC(=O)OC5)cc(-c4cc(Cl)cc(Cl)c4)n3)cn2)CC1` [Example 141, 9-((2-(3,5-dichlorophenyl)-6-((6-(4-methylpiperazin-1-yl)pyridin-3-yl)oxy)pyridin-4-yl)methyl)-2-oxa-4,9-diazaspiro[5.5]undecan-3-one] were, in that order, 5.01 nM and 8.6.
In the same order, the values of `CC1(C)CN(c2ncc(Oc3cc(CN4CCC(CC(=O)O)CC4)cc(-c4cc(Cl)cc(Cl)c4)n3)cn2)CCN1` [Example 160, 2-(1-((2-(3,5-dichlorophenyl)-6-((2-(3,3-dimethylpiperazin-1-yl)pyrimidin-5-yl)oxy)pyridin-4-yl)methyl)piperidin-4-yl)acetic acid] are 25.1 nM and 8.8.
For `CC(=O)NCC1CCN(Cc2cc(Oc3cnc(N4CCN(CCO)CC4)nc3)nc(-c3cc(F)cc(Cl)c3)c2)CC1` [Example 315, N-((1-((2-(3-chloro-5-fluorophenyl)-6-((2-(4-(2-hydroxyethyl)piperazin-1-yl)pyrimidin-5-yl)oxy)pyridin-4-yl)methyl)piperidin-4-yl)methyl)acetamide], the EC50 in test [1] was 15.8 nM. For the same compound, in test [2], the “furin enzyme pIC50” value stood at 9.2.
Consider `CC(=O)NCC1CCN(Cc2cc(Oc3ccc(N4CCN5C(=O)NCC5C4)nc3)cc(-c3cc(Cl)cc(Cl)c3)c2)CC1` (stereo not drawn) [Example 107, N-((1-((3′,5′-Dichloro-5-((6-(3-oxohexahydroimidazo[1,5-a]pyrazin-7(1H)-yl)pyridin-3-yl)oxy)-[1,1′-biphenyl]-3-yl)methyl)piperidin-4-yl)methyl)acetamide, 2 hydrochloride], for which the EC50 in test [1] is 5.01 nM. Besides, in test [2], the “furin enzyme pIC50” value is on record as 9.
In the same order, the values of `O=C(O)COC1CCN(Cc2cc(Oc3cnc(N4CCNCC4)nc3)nc(-c3cc(Cl)cc(Cl)c3)c2)CC1` [Example 122] are 79.4 nM and 8.5.
Take `CC(=O)N[C@@H]1[C@@H]2CN(Cc3cc(Oc4cnc(N5CCCN(C)CC5)nc4)nc(-c4cc(Cl)cc(Cl)c4)c3)C[C@@H]21` [Example 154, N-((1R,5S,6r)-3-((2-(3,5-dichlorophenyl)-6-((2-(4-methyl-1,4-diazepan-1-yl)pyrimidin-5-yl)oxy)pyridin-4-yl)methyl)-3-azabicyclo[3.1.0]hexan-6-yl)acetamide]: in test [1], the EC50 is 50.1 nM. The “furin enzyme pIC50” value in test [2] is 7.8.
In the same order, the values of `CC(=O)NCC1CCN(Cc2cc(Oc3ccc(N4CCN(CCS(C)(=O)=O)CC4)nc3)cc(-c3cc(Cl)cc(Cl)c3)c2)CC1` [Example 293, N-((1-((3′,5′-dichloro-5-((6-(4-(2-(methylsulfonyl)ethyl)piper-1-yl)pyridin-3-yl)oxy)-[1,1′-biphenyl]-3-yl)methyl)piperidin-4-yl)methyl)acetamide] are 158 nM and 8.2.
With `O=C(O)CC1CCN(Cc2cc(Oc3cnc(N4CCN5CCC4C5)cn3)nc(-c3cc(Cl)cc(Cl)c3)c2)CC1` (stereo not drawn) [Example 348, 2-(1-((2-((5-(1,4-diazabicyclo[3.2.1]octan-4-yl)pyrazin-2-yl)oxy)-6-(3,5-dichlorophenyl)pyridin-4-yl)methyl)piperidin-4-yl)acetic acid], in test [1], the EC50 was 50.1 nM. The “furin enzyme pIC50” value in test [2] turned out to be 8.4.
In the same order, the values of `CC(O)CCN1CCN(c2ncc(Oc3cc(CN4CCC(F)CC4)cc(-c4cc(Cl)cc(Cl)c4)n3)cn2)CC1` (stereo not drawn) [Example 60, 4-(4-(5-((6-(3,5-dichlorophenyl)-4-((4-fluoropiperidin-1-yl)methyl)pyridin-2-yl)oxy)pyrimidin-2-yl)piperazin-1-yl)butan-2-ol] are 15.8 nM and 7.6.
Regarding `CNCc1cc(Oc2cnc(N3CCN(CCCS(C)(=O)=O)CC3)nc2)nc(-c2cc(Cl)cc(Cl)c2)c1` [Example 37, 1-(2-(3,5-Dichlorophenyl)-6-((2-(4-(3-(methylsulfonyl)propyl)piperazin-1-yl)pyrimidin-5-yl)oxy)pyridin-4-yl)-N-methylmethanamine], in test [1], the EC50 is 12.6 nM. In addition, the “furin enzyme pIC50” value in test [2] was 8.5.
In the same order, the values of `CN1CCN(c2ncc(Oc3cc(CN4CCC(CCO)CC4)cc(-c4cc(Cl)cc(Cl)c4)n3)cn2)CC1` [Example 52, 2-(1-((2-(3,5-Dichlorophenyl)-6-((2-(4-methylpiperazin-1-yl)pyrimidin-5-yl)oxy)pyridin-4-yl)methyl)piperidin-4-yl)ethanol] are 1.26 nM and 9.8.
For the compound `CNC(=O)OCC1CCN(Cc2cc(Oc3cnc(N4CCN(CCC(=O)O)CC4)nc3)nc(-c3cc(Cl)cc(Cl)c3)c2)CC1` [Example 248, 3-(4-(5-((6-(3,5-dichlorophenyl)-4-((4-(((methylcarbamoyl)oxy)methyl)piperidin-1-yl)methyl)pyridin-2-yl)oxy)pyrimidin-2-yl)piperazin-1-yl)propanoic acid], the EC50 in test [1] is 25.1 nM. Besides, the IC50 in test [2] was 0.0316 nM.
